Experiments:
[1] = Stability in human liver S9 fractions; type: in vitro ADME
GST-tagged human RIPK1 = target: T1, GST-tagged human RIPK1 (Homo sapiens, UniProt Q13546); assay: TR-FRET biochemical binding assay for RIPK1
T1 construct: purchased SignalChem R07–11G-10
T1 sequence (Q13546 1-327 limits assumed): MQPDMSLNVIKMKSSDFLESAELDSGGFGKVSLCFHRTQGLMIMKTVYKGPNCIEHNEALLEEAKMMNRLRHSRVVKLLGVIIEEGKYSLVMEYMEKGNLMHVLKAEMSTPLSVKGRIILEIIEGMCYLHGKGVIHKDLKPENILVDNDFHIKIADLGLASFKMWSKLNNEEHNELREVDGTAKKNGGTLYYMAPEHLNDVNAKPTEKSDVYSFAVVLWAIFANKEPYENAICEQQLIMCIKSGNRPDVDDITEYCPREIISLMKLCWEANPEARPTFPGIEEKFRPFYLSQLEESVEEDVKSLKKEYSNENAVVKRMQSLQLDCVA
Method: Figure 2 LD4172, a RIPK1 PROTAC, induces potent and highly specific degradation of RIPK1 in a panel of cell lines. A, Chemical structures of RIPK1 PROTAC, LD4172, and its negative control, LD4172-NC. […] B, Quantification of RIPK1 levels in both Jurkat and B16F10 cells treated with LD4172 at indicated concentrations for 24 h, followed by Western blotting. C, DC50 and Dmax of LD4172 in various human and mouse cell lines. DC50, the drug concentration causing 50% protein degradation; Dmax, the maximum level of protein degradation. D, RIPK1 degradation kinetics induced by LD4172 treatment (1 μM) and resynthesis kinetics upon washout of LD4172 in both Jurkat and B16F10 cells. […] G, Time-resolved fluorescence resonance energy transfer (TR-FRET) based biochemical binding assay for RIPK1. […] In total, ~10,000 proteins were quantified in the proteomics experiment. […]
A time-resolved fluorescence resonance energy transfer (TR-FRET) assay was performed to evaluate the binding of the indicated compounds and RIPK1 by competition with a BODIPY-FL labeled RIPK1 tracer (Supplementary Information, T2I-488). […] The assay mixtures were incubated at room temperature in the dark for 120 min, and the signals were collected using a BioTek Synergy H1 microplate reader to measure the fluorescence emission ratio (I520 nm/I490 nm) of each well using a 340-nm excitation filter, a 100-μs delay, and a 200-μs integration time. […]

SMILES: Cc1ncsc1-c1ccc([C@H](C)NC(=O)[C@@H]2C[C@@H](O)CN2C(=O)[C@@H](NC(=O)CCCCCCCCCCC(=O)NCCCn2cc(-c3ccc4c(c3)CCN4C(=O)Cc3cccc(OC(F)(F)F)c3)c3c(N)ncnc32)C(C)(C)C)cc1 [LD4172]
- half-life [1]: 21.1 min
- intrinsic clearance (CLint) [1]: 32.8 μL·min^− 1·mg^− 1 protein
- IC50 (GST-tagged human RIPK1; 2 hours incubation, n=3, read-out: IC50, Fig. 2G): 9.6 nM
- Ki (GST-tagged human RIPK1; recombinant human RIPK1 protein): 4.8 nM

From publication PMC11042424, “Development of a First-in-Class RIPK1 Degrader to Enhance Antitumor Immunity” (Research Square, 2024)
